Test system: NCI-H522
Assay: Growth inhibition of human NCI-H522 cells assessed as cell growth at 10 uM incubated for 48 hrs by sulforhodamine B assay relative to control
Type: functional
Settings: NCI-H522, 48 h, read-out: Activity

| SMILES | growth at 10 µM [%] |
| --- | --- |
| CCOC(=O)c1c(C)oc2ncnc(Nc3ccc(OCc4cccc(C)c4)cc3)c12 | 81 |

Test system: 786-0
Assay: Growth inhibition of human 786-0 cells assessed as cell growth at 10 uM incubated for 48 hrs by sulforhodamine B assay relative to control
Type: functional
Settings: 786-0, 48 h, read-out: Activity

| SMILES | growth at 10 µM [%] |
| --- | --- |
| CCOC(=O)c1c(C)oc2ncnc(Nc3ccc(OCc4cccc(C)c4)cc3)c12 | 103 |

Test system: HT-29
Assay: Growth inhibition of human HT-29 cells assessed as cell growth at 10 uM incubated for 48 hrs by sulforhodamine B assay relative to control
Type: functional
Settings: HT-29, 48 h, read-out: Activity

| SMILES | growth at 10 µM [%] |
| --- | --- |
| CCOC(=O)c1c(C)oc2ncnc(Nc3ccc(OCc4cccc(C)c4)cc3)c12 | 87.5 |

Test system: BT-549
Assay: Growth inhibition of human BT549 cells assessed as cell growth at 10 uM incubated for 48 hrs by sulforhodamine B assay relative to control
Type: functional
Settings: BT-549, 48 h, read-out: Activity

| SMILES | growth at 10 µM [%] |
| --- | --- |
| CCOC(=O)c1c(C)oc2ncnc(Nc3ccc(OCc4cccc(C)c4)cc3)c12 | 106 |

Test system: OVCAR-4
Assay: Growth inhibition of human OVCAR4 cells assessed as cell growth at 10 uM incubated for 48 hrs by sulforhodamine B assay relative to control
Type: functional
Settings: OVCAR-4, 48 h, read-out: Activity

| SMILES | growth at 10 µM [%] |
| --- | --- |
| CCOC(=O)c1c(C)oc2ncnc(Nc3ccc(OCc4cccc(C)c4)cc3)c12 | 105 |

Test system: SK-MEL-2
Assay: Growth inhibition of human SK-MEL-2 cells assessed as cell growth at 10 uM incubated for 48 hrs by sulforhodamine B assay relative to control
Type: functional
Settings: SK-MEL-2, 48 h, read-out: Activity

| SMILES | growth at 10 µM [%] |
| --- | --- |
| CCOC(=O)c1c(C)oc2ncnc(Nc3ccc(OCc4cccc(C)c4)cc3)c12 | 100 |

Test system: TK-10
Assay: Growth inhibition of human TK10 cells assessed as cell growth at 10 uM incubated for 48 hrs by sulforhodamine B assay relative to control
Type: functional
Settings: TK-10, 48 h, read-out: Activity

| SMILES | growth at 10 µM [%] |
| --- | --- |
| CCOC(=O)c1c(C)oc2ncnc(Nc3ccc(OCc4cccc(C)c4)cc3)c12 | 94.7 |

Test system: SF-268
Assay: Growth inhibition of human SF268 cells assessed as cell growth at 10 uM incubated for 48 hrs by sulforhodamine B assay relative to control
Type: functional
Settings: SF-268, 48 h, read-out: Activity

| SMILES | growth at 10 µM [%] |
| --- | --- |
| CCOC(=O)c1c(C)oc2ncnc(Nc3ccc(OCc4cccc(C)c4)cc3)c12 | 106 |

Test system: A549
Assay: Growth inhibition of human A549/ATCC cells assessed as cell growth at 10 uM incubated for 48 hrs by sulforhodamine B assay relative to control
Type: functional
Settings: A549, 48 h, read-out: Activity

| SMILES | growth at 10 µM [%] |
| --- | --- |
| CCOC(=O)c1c(C)oc2ncnc(Nc3ccc(OCc4cccc(C)c4)cc3)c12 | 88.9 |

Test system: NCI-H23
Assay: Growth inhibition of human NCI-H23 cells assessed as cell growth at 10 uM incubated for 48 hrs by sulforhodamine B assay relative to control
Type: functional
Settings: NCI-H23, 48 h, read-out: Activity

| SMILES | growth at 10 µM [%] |
| --- | --- |
| CCOC(=O)c1c(C)oc2ncnc(Nc3ccc(OCc4cccc(C)c4)cc3)c12 | 94.9 |

Test system: MDA-MB-468
Assay: Growth inhibition of human MDA-MB-468 cells assessed as cell growth at 10 uM incubated for 48 hrs by sulforhodamine B assay relative to control
Type: functional
Settings: MDA-MB-468, 48 h, read-out: Activity

| SMILES | growth at 10 µM [%] |
| --- | --- |
| CCOC(=O)c1c(C)oc2ncnc(Nc3ccc(OCc4cccc(C)c4)cc3)c12 | 106 |

Test system: MDA-MB-435
Assay: Growth inhibition of human MDA-MB-435 cells assessed as cell growth at 10 uM incubated for 48 hrs by sulforhodamine B assay relative to control
Type: functional
Settings: MDA-MB-435, 48 h, read-out: Activity

| SMILES | growth at 10 µM [%] |
| --- | --- |
| CCOC(=O)c1c(C)oc2ncnc(Nc3ccc(OCc4cccc(C)c4)cc3)c12 | 104 |

Test system: OVCAR-3
Assay: Growth inhibition of human OVCAR3 cells assessed as cell growth at 10 uM incubated for 48 hrs by sulforhodamine B assay relative to control
Type: functional
Settings: OVCAR-3, 48 h, read-out: Activity

| SMILES | growth at 10 µM [%] |
| --- | --- |
| CCOC(=O)c1c(C)oc2ncnc(Nc3ccc(OCc4cccc(C)c4)cc3)c12 | 117 |

Test system: RXF 393
Assay: Growth inhibition of human RXF393 cells assessed as cell growth at 10 uM incubated for 48 hrs by sulforhodamine B assay relative to control
Type: functional
Settings: RXF 393, 48 h, read-out: Activity

| SMILES | growth at 10 µM [%] |
| --- | --- |
| CCOC(=O)c1c(C)oc2ncnc(Nc3ccc(OCc4cccc(C)c4)cc3)c12 | 111 |

Test system: SW-620
Assay: Growth inhibition of human SW620 cells assessed as cell growth at 10 uM incubated for 48 hrs by sulforhodamine B assay relative to control
Type: functional
Settings: SW-620, 48 h, read-out: Activity

| SMILES | growth at 10 µM [%] |
| --- | --- |
| CCOC(=O)c1c(C)oc2ncnc(Nc3ccc(OCc4cccc(C)c4)cc3)c12 | 101 |

Test system: Hs-578T
Assay: Growth inhibition of human Hs 578T cells assessed as cell growth at 10 uM incubated for 48 hrs by sulforhodamine B assay relative to control
Type: functional
Settings: read-out: Activity

| SMILES | growth at 10 µM [%] |
| --- | --- |
| CCOC(=O)c1c(C)oc2ncnc(Nc3ccc(OCc4cccc(C)c4)cc3)c12 | 102 |

Test system: HOP-92
Assay: Growth inhibition of human HOP92 cells assessed as cell growth at 10 uM incubated for 48 hrs by sulforhodamine B assay relative to control
Type: functional
Settings: HOP-92, 48 h, read-out: Activity

| SMILES | growth at 10 µM [%] |
| --- | --- |
| CCOC(=O)c1c(C)oc2ncnc(Nc3ccc(OCc4cccc(C)c4)cc3)c12 | 104 |

Test system: ACHN
Assay: Growth inhibition of human ACHN cells assessed as cell growth at 10 uM incubated for 48 hrs by sulforhodamine B assay relative to control
Type: functional
Settings: read-out: Activity

| SMILES | growth at 10 µM [%] |
| --- | --- |
| CCOC(=O)c1c(C)oc2ncnc(Nc3ccc(OCc4cccc(C)c4)cc3)c12 | 98.1 |

Test system: EKVX
Assay: Growth inhibition of human EKVX cells assessed as cell growth at 10 uM incubated for 48 hrs by sulforhodamine B assay relative to control
Type: functional
Settings: read-out: Activity

| SMILES | growth at 10 µM [%] |
| --- | --- |
| CCOC(=O)c1c(C)oc2ncnc(Nc3ccc(OCc4cccc(C)c4)cc3)c12 | 94.5 |

Test system: Malme-3M
Assay: Growth inhibition of human MALME-3M cells assessed as cell growth at 10 uM incubated for 48 hrs by sulforhodamine B assay relative to control
Type: functional
Settings: read-out: Activity

| SMILES | growth at 10 µM [%] |
| --- | --- |
| CCOC(=O)c1c(C)oc2ncnc(Nc3ccc(OCc4cccc(C)c4)cc3)c12 | 126 |

Test system: NCI-H322M
Assay: Growth inhibition of human NCI-H322M cells assessed as cell growth at 10 uM incubated for 48 hrs by sulforhodamine B assay relative to control
Type: functional
Settings: read-out: Activity

| SMILES | growth at 10 µM [%] |
| --- | --- |
| CCOC(=O)c1c(C)oc2ncnc(Nc3ccc(OCc4cccc(C)c4)cc3)c12 | 94 |

Test system: SNB-19
Assay: Growth inhibition of human SNB19 cells assessed as cell growth at 10 uM incubated for 48 hrs by sulforhodamine B assay relative to control
Type: functional
Settings: SNB-19, 48 h, read-out: Activity

| SMILES | growth at 10 µM [%] |
| --- | --- |
| CCOC(=O)c1c(C)oc2ncnc(Nc3ccc(OCc4cccc(C)c4)cc3)c12 | 99.7 |

Test system: U-251
Assay: Growth inhibition of human U251 cells assessed as cell growth at 10 uM incubated for 48 hrs by sulforhodamine B assay relative to control
Type: functional
Settings: U-251, 48 h, read-out: Activity

| SMILES | growth at 10 µM [%] |
| --- | --- |
| CCOC(=O)c1c(C)oc2ncnc(Nc3ccc(OCc4cccc(C)c4)cc3)c12 | 96.4 |

Test system: SF-295
Assay: Growth inhibition of human SF295 cells assessed as cell growth at 10 uM incubated for 48 hrs by sulforhodamine B assay relative to control
Type: functional
Settings: SF-295, 48 h, read-out: Activity

| SMILES | growth at 10 µM [%] |
| --- | --- |
| CCOC(=O)c1c(C)oc2ncnc(Nc3ccc(OCc4cccc(C)c4)cc3)c12 | 101 |

Test system: PC-3
Assay: Growth inhibition of human PC3 cells assessed as cell growth at 10 uM incubated for 48 hrs by sulforhodamine B assay relative to control
Type: functional
Settings: PC-3, 48 h, read-out: Activity

| SMILES | growth at 10 µM [%] |
| --- | --- |
| CCOC(=O)c1c(C)oc2ncnc(Nc3ccc(OCc4cccc(C)c4)cc3)c12 | 93.4 |

Test system: HCC 2998
Assay: Growth inhibition of human HCC2998 cells assessed as cell growth at 10 uM incubated for 48 hrs by sulforhodamine B assay relative to control
Type: functional
Settings: HCC 2998, 48 h, read-out: Activity

| SMILES | growth at 10 µM [%] |
| --- | --- |
| CCOC(=O)c1c(C)oc2ncnc(Nc3ccc(OCc4cccc(C)c4)cc3)c12 | 114 |

Test system: HCT-116
Assay: Growth inhibition of human HCT116 cells assessed as cell growth at 10 uM incubated for 48 hrs by sulforhodamine B assay relative to control
Type: functional
Settings: HCT-116, 48 h, read-out: Activity

| SMILES | growth at 10 µM [%] |
| --- | --- |
| CCOC(=O)c1c(C)oc2ncnc(Nc3ccc(OCc4cccc(C)c4)cc3)c12 | 90.6 |

Test system: RPMI-8226
Assay: Growth inhibition of human RPMI8226 cells assessed as cell growth at 10 uM incubated for 48 hrs by sulforhodamine B assay relative to control
Type: functional
Settings: RPMI-8226, 48 h, read-out: Activity

| SMILES | growth at 10 µM [%] |
| --- | --- |
| CCOC(=O)c1c(C)oc2ncnc(Nc3ccc(OCc4cccc(C)c4)cc3)c12 | 117 |

Test system: MCF7
Assay: Growth inhibition of human MCF7 cells assessed as cell growth at 10 uM incubated for 48 hrs by sulforhodamine B assay relative to control
Type: functional
Settings: MCF7, 48 h, read-out: Activity

| SMILES | growth at 10 µM [%] |
| --- | --- |
| CCOC(=O)c1c(C)oc2ncnc(Nc3ccc(OCc4cccc(C)c4)cc3)c12 | 99.2 |

Test system: MDA-MB-231
Assay: Growth inhibition of human MDA-MB-231 cells assessed as cell growth at 10 uM incubated for 48 hrs by sulforhodamine B assay relative to control
Type: functional
Settings: MDA-MB-231, 48 h, read-out: Activity

| SMILES | growth at 10 µM [%] |
| --- | --- |
| CCOC(=O)c1c(C)oc2ncnc(Nc3ccc(OCc4cccc(C)c4)cc3)c12 | 88.6 |

Test system: HL-60(TB)
Assay: Growth inhibition of human HL-60(TB) cells assessed as cell growth at 10 uM incubated for 48 hrs by sulforhodamine B assay relative to control
Type: functional
Settings: HL-60, 48 h, read-out: Activity

| SMILES | growth at 10 µM [%] |
| --- | --- |
| CCOC(=O)c1c(C)oc2ncnc(Nc3ccc(OCc4cccc(C)c4)cc3)c12 | 108 |

Test system: SN12C
Assay: Growth inhibition of human SN12C cells assessed as cell growth at 10 uM incubated for 48 hrs by sulforhodamine B assay relative to control
Type: functional
Settings: read-out: Activity

| SMILES | growth at 10 µM [%] |
| --- | --- |
| CCOC(=O)c1c(C)oc2ncnc(Nc3ccc(OCc4cccc(C)c4)cc3)c12 | 88.6 |

Test system: MOLT-4
Assay: Growth inhibition of human MOLT4 cells assessed as cell growth at 10 uM incubated for 48 hrs by sulforhodamine B assay relative to control
Type: functional
Settings: MOLT-4, 48 h, read-out: Activity

| SMILES | growth at 10 µM [%] |
| --- | --- |
| CCOC(=O)c1c(C)oc2ncnc(Nc3ccc(OCc4cccc(C)c4)cc3)c12 | 115 |

Source: ChEMBL document CHEMBL4251615, “Discovery of anilino-furo[2,3-d]pyrimidine derivatives as dual inhibitors of EGFR/HER2 tyrosine kinase and their anticancer activity” (Eur J Med Chem, 2018)
